Data taken from PMC6930494, “Immobilization of Naringinase from Penicillium decumbens on Chitosan Microspheres for Debittering Grapefruit Juice” (Molecules, 2019).

System: T1, naringinase
T1 construct: gene naringinase alpha-L-rhamnosidase activity
Assay: initial rates of naringin hydrolysis, Davis or DNS method, Lineweaver-Burk
Type: biochemical, Penicillium decumbens
Conditions: free enzyme; 0.1 M acetate buffer pH 4.0, 50 °C; naringin 0.5-20 mM; commercial enzyme complex
From the text: initial rates of naringin hydrolysis, Davis or DNS method, Lineweaver-Burk on naringinase

Km: 2560 µM
Compound: C[C@@H]1O[C@@H](O[C@H]2[C@H](Oc3cc(O)c4c(c3)O[C@H](c3ccc(O)cc3)CC4=O)O[C@H](CO)[C@@H](O)[C@@H]2O)[C@H](O)[C@H](O)[C@H]1O [naringin]
